From paper PMC4730229, “Benzobisthiazoles Represent a Novel Scaffold for Kinase Inhibitors of CLK Family Members” (Biochemistry, 2015)

Experiments:
Format in all cases: biochemical
[1] = target: T1, GST-CLK2cd (CLK2 catalytic domain) (Homo sapiens, UniProt P49760); experiment: High-throughput screen, Kinase-Glo in vitro kinase assay; details: compound at 10 μM; read-out: percentage of inhibition on CLK2 (primary screen)
T1 construct: cDNA encoding the CLK2 catalytic domain (CLK2cd, amino acids 140–496); made in house; host or cells: Escherichia coli BL21(DE3)-R3-lambda-PPase
T1 sequence (P49760 140-496): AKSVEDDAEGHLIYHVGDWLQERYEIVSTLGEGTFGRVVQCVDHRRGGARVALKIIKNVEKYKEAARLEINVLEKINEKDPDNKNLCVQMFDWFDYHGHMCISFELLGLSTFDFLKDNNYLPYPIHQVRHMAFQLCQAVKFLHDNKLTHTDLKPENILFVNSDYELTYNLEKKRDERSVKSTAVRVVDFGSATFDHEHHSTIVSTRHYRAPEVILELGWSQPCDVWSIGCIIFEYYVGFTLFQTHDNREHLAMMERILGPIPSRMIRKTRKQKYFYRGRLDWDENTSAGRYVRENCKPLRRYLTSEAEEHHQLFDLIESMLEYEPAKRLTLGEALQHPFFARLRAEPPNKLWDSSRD
Description: A small molecule inhibitor library consisting of 1600 compounds was obtained from LIFE Chemicals (Kiev, Ukraine). These compounds are part of the CUTE kinase collection that was predicted by in silico profiling against a panel of targets and includes potent kinase inhibitor compounds.[16] Compounds were dissolved as 10 mM stocks in DMSO and stored at room temperature, in the presence of 5% humidity and 5% oxygen in the dark in a Roylan Storage Pod system. Compounds were dispensed into white 384-well plates using the Labcyte Echo520 instrument at a final concentration of 10 μM. Next, 5 μL of 144.92 nM purified GST-CLK2cd in kinase assay buffer A was added to the compounds, incubated for 10 min at room temperature prior to addition of 5 μL of a 2 μM ATP/10 μM S6K peptide mixture, and incubated again for 60 min at room temperature. Subsequently, 10 μL of Kinase-Glo was added to the wells, and the plates were analyzed after 10 min on the Envision II multilabel plate reader (PerkinElmer). […] The percentage of inhibition is equal to 100 – [(total ATP before assay – remaining ATP in assay with compound)/(total ATP before assay – remaining ATP in assay with DMSO) × 100].

firefly luciferase = experiment: Luciferase inhibition assay (Kinase-Glo, no kinase); details: compound at 10 μM
Description: For analysis of luciferase inhibition, 10 μL of luciferase reagent (Kinase-Glo, Promega) was added to 10 μL of a mixture consisting of 1 μM ATP and 5 μM S6K and 10 μM compound (potential kinase inhibitor) in buffer A in the absence of kinase and incubated for 10 min at room temperature in a white well plate before the luminescence was read. The percentage of inhibition is equal to (luminescence in the assay without compound – luminescence in the assay with compound)/(luminescence in the assay without compound) × 100.

CLK2 = CLK2 (Homo sapiens, UniProt P49760); experiment: Kinase inhibition assay, IC50; set-up: cDNA encoding the CLK2 catalytic domain (CLK2cd, amino acids 140–496); made in house; host or cells: Escherichia coli BL21(DE3)-R3-lambda-PPase; details: relative to 3A5
CLK2, sequence (P49760 140-496): as above

CLK3 = target: T2, CLK3 (Homo sapiens, UniProt P49761); experiment: Kinase inhibition assay, IC50
T2 construct: The catalytic domains of CLK1, CLK2, CLK3, CLK2K193A, and CLK2K193A/D290A were tagged with GST; GST (N); made in house
T2 sequence (P49761 156-472 limits assumed): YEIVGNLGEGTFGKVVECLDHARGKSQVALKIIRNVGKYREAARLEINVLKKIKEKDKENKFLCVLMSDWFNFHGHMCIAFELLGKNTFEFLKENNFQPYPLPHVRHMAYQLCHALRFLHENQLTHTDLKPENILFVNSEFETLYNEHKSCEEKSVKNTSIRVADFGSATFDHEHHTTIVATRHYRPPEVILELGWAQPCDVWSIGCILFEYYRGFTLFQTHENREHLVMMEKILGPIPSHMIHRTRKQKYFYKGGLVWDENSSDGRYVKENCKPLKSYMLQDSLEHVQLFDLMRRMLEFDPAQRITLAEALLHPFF

## O=C(Nc1nc2c(s1)CCCC2)C1CC1 [1C11]
[1]
  inhibition at 10 µM: 50%
Firefly luciferase
  % inhibition of luciferase: 8.1 ± 1.8%

## CC(=O)Nc1ccc(-c2nc3c(Cl)cccc3[nH]2)cc1 [2A4]
[1]
  inhibition at 10 µM: 51%
Firefly luciferase
  % inhibition of luciferase: 17.5 ± 4.5%

## O=C(Nc1cccc(-c2nc3ccccc3[nH]2)c1)c1ccc2ncsc2c1 [3B5]
[1]
  inhibition at 10 µM: 65%
Firefly luciferase
  % inhibition of luciferase: 26 ± 1.1%

## O=C(NCCO)c1ccc(Nc2nc(-c3ccccc3)c3cc(Cl)ccc3n2)cc1 [4B9]
[1]
  inhibition at 10 µM: 56%
Firefly luciferase
  % inhibition of luciferase: 20.4 ± 1.6%

## Cc1nc2c(ccc3nc(NC(=O)c4cccs4)sc32)s1 [4G9]
[1]
  inhibition at 10 µM: 50%
Firefly luciferase
  % inhibition of luciferase: 47.8 ± 2.1%

## Fc1ccc(-c2csc3ncnc(NCc4ccccc4)c23)cc1 [5E11]
[1]
  inhibition at 10 µM: 58%
Firefly luciferase
  % inhibition of luciferase: 26.4 ± 2.4%

## CSc1nc2ccc3nc(NC(=O)c4ccc(S(=O)(=O)N5CCOCC5)cc4)sc3c2s1 [5F4]
[1]
  inhibition at 10 µM: 55%
CLK2
  decrease of inhibition against CLK2 compared to 3A5: 2–3 fold
Firefly luciferase
  % inhibition of luciferase: 23.6 ± 1.5%

## COc1cc(C(=O)Nc2nc3ccc(S(=O)(=O)N4CCCCC4)cc3s2)cc(OC)c1OC [7C4]
[1]
  inhibition at 10 µM: 53%
Firefly luciferase
  % inhibition of luciferase: 19.6 ± 3.6%

## CC(=O)Nc1nc2cc3c(cc2s1)OCO3 [8A6]
[1]
  inhibition at 10 µM: 53%
Firefly luciferase
  % inhibition of luciferase: 18.8 ± 1.6%

## COCCNC(=O)c1cccc(Nc2nc(-c3ccccc3)c3cc(Cl)ccc3n2)c1 [8B5]
[1]
  inhibition at 10 µM: 52%
Firefly luciferase
  % inhibition of luciferase: 0 ± 6.2%

## O=C(O)c1ccc(C(=O)Nc2ccccc2-c2nc3ccccc3[nH]2)cc1 [9C6]
[1]
  inhibition at 10 µM: 58%
Firefly luciferase
  % inhibition of luciferase: 5.6 ± 4.0%

## COc1ccc(Cc2cnc(NC(=O)c3cc(C)oc3C)s2)cc1 [13D3]
[1]
  inhibition at 10 µM: 51%
Firefly luciferase
  % inhibition of luciferase: 0 ± 2.4%

## COc1ccccc1C(=O)Nc1nc2ncccc2cc1-c1ccccc1 [17F6]
[1]
  inhibition at 10 µM: 53%
Firefly luciferase
  % inhibition of luciferase: 21.9 ± 0.2%

## CC1(C)Cc2cccc(OCC(=O)Nc3cccc(-c4cc[nH]n4)c3)c2O1 [18B6]
[1]
  inhibition at 10 µM: 58%
Firefly luciferase
  % inhibition of luciferase: 17.5 ± 2.2%

## O=C(Nc1cccc(-c2nc3ccccc3[nH]2)c1)c1ccc2nsnc2c1 [18H3]
[1]
  inhibition at 10 µM: 56%
Firefly luciferase
  % inhibition of luciferase: 21.1 ± 2.2%

## O=C1N=C(NCc2cccs2)S/C1=C\c1ccc2ncccc2c1 [NR9, (5Z)-5-(quinolin-6-ylmethylidene)-2-[(thiophen-2-ylmethyl)amino]-1,3-thiazol-4(5H)-one]
CLK3
  IC50: > 3 µM

## CCN1/C(=C/C(C)=O)Sc2ccc(OC)cc21 [TG003, reference compound]
[1]
  inhibition at 10 µM: 63%
Firefly luciferase
  % inhibition of luciferase: 13.4 ± 1.8%
